This is an account of results in PubChem BioAssay (NCI).

SMILES strings stand for the structures.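 96-well plates; 48 h exposure; 5 concentrations. Endpoints by linear interpolation between flanking doses. Not reached: highest tested concentration assigned. TGI denotes the concentration required for complete inhibition of growth.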 A value given as a limit tells only on which side of the number the result lay.

Among the test systems are ACHN renal; HCT-15 colon; LOX IMVI melanoma; M14 melanoma; MDA-MB-435; OVCAR-3 ovarian; OVCAR-5 ovarian; RPMI-8226 leukemia; RXF 393 renal; SK-MEL-28 melanoma; SNB-19 CNS; SW-620 colon; A498 renal; SK-OV-3 ovarian; SNB-75 CNS.
Common to all, as to experiment: NCI tumour cell line growth inhibition, 48 h

Turning to `O=c1c2cc(I)ccc2nc(-c2cccs2)n1O`, the TGI is > 100 µM in the assay with ACHN renal; > 100 µM in the assay on HCT-15 colon; 80.4 µM in the assay on LOX IMVI melanoma; > 100 µM in the assay on M14 melanoma; > 100 µM in the assay on MDA-MB-435; 42.8 µM in the assay on OVCAR-3 ovarian. The TGI in the assay with OVCAR-5 ovarian was > 100 µM; in the assay on RPMI-8226 leukemia, > 100 µM; in the assay on RXF 393 renal, > 100 µM; with SK-MEL-28 melanoma, > 100 µM; in the assay on SNB-19 CNS, 72 µM; in the assay on SW-620 colon it was > 100 µM.

With `CC1(Cl)CC(C)(/C=C/Cl)C(Cl)CC1Cl` (centres undefined), the TGI in the assay on A498 renal worked out at 34 µM; with ACHN renal, 27.8 µM; in the assay on HCT-15 colon, 27.3 µM; in the assay with M14 melanoma, 31.2 µM; with OVCAR-3 ovarian, 28 µM; in the assay on OVCAR-5 ovarian, 34.2 µM. Further, the TGI is 30.6 µM in the assay with RXF 393 renal; 29.4 µM in the assay with SK-MEL-28 melanoma; 66.4 µM in the assay with SK-OV-3 ovarian; 31.4 µM with SNB-19 CNS; 41.4 µM with SNB-75 CNS; 30.8 µM in the assay on SW-620 colon.

Turning to `Cn1c(NC(=O)NC23CC4CC(CC(C4)C2)C3)nc2ccccc21`, the TGI in the assay on ACHN renal, in the assay with HCT-15 colon, in the assay on LOX IMVI melanoma, in the assay on M14 melanoma, in the assay with OVCAR-3 ovarian and in the assay on OVCAR-5 ovarian was > 100 µM in each case. The TGI is > 100 µM in the assay with RPMI-8226 leukemia; 57.4 µM in the assay on RXF 393 renal; > 100 µM in the assay with SK-MEL-28 melanoma; 51.8 µM in the assay on SK-OV-3 ovarian; > 100 µM in the assay with SNB-19 CNS; 21.1 µM in the assay with SNB-75 CNS. In addition, the TGI in the assay on SW-620 colon was > 100 µM.

On to `O=C(O)/C=C/c1ccncc1`, for which the TGI in the assay with A498 renal, with ACHN renal, in the assay on HCT-15 colon, in the assay with LOX IMVI melanoma, in the assay on M14 melanoma and with OVCAR-3 ovarian was > 100 µM throughout. In addition, the TGI in the assay with OVCAR-5 ovarian, in the assay on RPMI-8226 leukemia, in the assay with RXF 393 renal, in the assay on SK-MEL-28 melanoma, with SK-OV-3 ovarian and in the assay on SNB-19 CNS was > 100 µM each time. For the same molecule, the TGI with SNB-75 CNS and in the assay with SW-620 colon was > 100 µM throughout.

Regarding `Cc1ccc(NC(=O)C(=O)Cc2cccc[n+]2[O-])cc1C`, the TGI in the assay with A498 renal, with ACHN renal, in the assay with HCT-15 colon, with LOX IMVI melanoma, in the assay on M14 melanoma and in the assay on OVCAR-3 ovarian was > 100 µM in each case. The TGI in the assay with OVCAR-5 ovarian, in the assay on RPMI-8226 leukemia, with RXF 393 renal, in the assay on SK-MEL-28 melanoma, with SK-OV-3 ovarian and in the assay with SNB-19 CNS was > 100 µM in each case. The TGI with SNB-75 CNS and in the assay with SW-620 colon was > 100 µM throughout.

On to `CC(C)=CC(=O)c1c(C(=O)O)nc2ccccc2[n+]1[O-]`, for which the TGI in the assay with A498 renal, in the assay with ACHN renal, in the assay on HCT-15 colon, in the assay with LOX IMVI melanoma, with M14 melanoma and in the assay on OVCAR-5 ovarian was > 100 µM in each case. Also, the TGI in the assay on RPMI-8226 leukemia, in the assay on RXF 393 renal, with SK-MEL-28 melanoma, in the assay on SK-OV-3 ovarian, in the assay with SNB-19 CNS and in the assay on SNB-75 CNS was > 100 µM throughout. Moreover, the TGI in the assay on SW-620 colon is > 100 µM.

With `C(=C\c1c2oc(-c3ccccc3)cc(-c3ccccc3)c-2c2ccccc12)/C=C1\c2ccccc2-c2c(-c3ccccc3)cc(-c3ccccc3)[o+]c21`, the TGI in the assay with A498 renal, with ACHN renal, in the assay with HCT-15 colon, in the assay on LOX IMVI melanoma, in the assay on M14 melanoma and in the assay with OVCAR-3 ovarian was > 100 µM in each case. The TGI in the assay on OVCAR-5 ovarian, in the assay with RPMI-8226 leukemia, in the assay with RXF 393 renal, in the assay with SK-MEL-28 melanoma, in the assay with SK-OV-3 ovarian and in the assay on SNB-19 CNS was > 100 µM in each case. Also, the TGI with SNB-75 CNS and with SW-620 colon was > 100 µM in each case.

On to `O=C(c1ccccc1)c1cc(Cl)ccc1NCn1nnc2ccccc21`, for which the TGI in the assay with A498 renal, in the assay on ACHN renal, in the assay on HCT-15 colon, in the assay on LOX IMVI melanoma, with M14 melanoma and with OVCAR-3 ovarian was > 100 µM throughout. Further, the TGI in the assay with RPMI-8226 leukemia, with RXF 393 renal, with SK-OV-3 ovarian, in the assay with SNB-19 CNS, with SNB-75 CNS and with SW-620 colon was > 100 µM in each case.

Consider `N#Cc1c(N)nc(Sc2ccccc2N)c(C#N)c1-c1ccccc1`, for which the TGI with ACHN renal is 69.2 µM; in the assay with HCT-15 colon it was > 100 µM; in the assay with LOX IMVI melanoma, 41.3 µM; in the assay on M14 melanoma it was > 100 µM; with MDA-MB-435 it was 97.3 µM; in the assay with OVCAR-5 ovarian, > 100 µM. In addition, the TGI in the assay on RPMI-8226 leukemia, in the assay with SK-MEL-28 melanoma, in the assay with SNB-19 CNS and in the assay on SW-620 colon was > 100 µM throughout.
